What was measured:
Assay type in all cases: physicochemical
[1] = Measurement of the critical micellar concentration (CMC) by surface tension (tensiometer, water/SA-ambient air interface); conditions: permuted water; for CMC: room temperature of 20° C.; for Surface tension: water/SA-ambient air interface, 20° C., Table II beside CMC
Experimental: Measurement of the critical micellar concentration (CMC) of the sulfobetaines of examples 2, 3, 5, and 7.
Preparation of solutions for the measurements of CMC values.
The method is a standard method using solutions of initial surfactant (SA) concentration of 0.5 g/l, in freshly permuted water, at room temperature of 20° C. The SA-water mixture is stirred up to complete dissolution and then a series of titrated solutions are obtained by successive dilution, by withdrawing a determined volume of mother-solution, brought each time to a standard volume i.e. 1 ml+39 ml; 2 ml+38 ml; 3 ml+37 ml; . . . The various solutions are stirred for 30 minutes and maintained at rest for 2 hours. The surface tensions are measured by means of a tensiometer Tensiomat n^3 Prolabo whose operating principle consists of measuring the pullout load of a stirrup piece placed at the water/SA-ambient air interface, expressed in millinewton/meter.
The CMC value corresponds to the inflection point of the obtained two straight lines.

[2] = Solubility in water at 20° C.
Experimental: Solubility in water at 20° C. of the sulfobetaines of examples 2, 3, 5 and 7 (Table I).

[3] = Micro-emulsion test: determination of optimum solubility and optimum salt content parameters; conditions: pentanol as cosurfactant, dodecane as oil; brine NaCl/CaCl2 9/1
Text: Micro-emulsion test: Determination of optimum solubility and optimum salt content parameters.
The surface-active properties have been determined by analysis of the behaviour of sulfobetaines in a mixture defined according to standard conditions:
brine (NaCl, CaCl2 with (NaCl/CaCl2)=(9/1): 4.5 g
Depending on the salt content of the brine (0-200 g/l), three mono-, di- or triphasic systems can be observed when the product has surface-active properties:
(1) the behavior referred to as Windsor I, wherein an equilibrium is observed between oil phase and με phase*.
(2) a behavior referred to as Windsor II, wherein an equilibrium is observed between με phase and aqueous phase.
(3) and, finally, a so-called Windsor III systems, wherein the intermediary με phase is in equilibrium with a supernatant oil phase and an aqueous phase.
The latter system has the pecularity of very low interfacial tensions. […] The optimum solubility and optimum salinity parameters, corresponding to equal amounts of water and oil in the micro-emulsion, are defined in this system.
By way of example, for sulfobetaine: [drawing 25] the following parameters have been obtained with pentanol as cosurfactant and dodecane as oil: […]

Structure (SMILES) | CMC [1] [g/L] | Surface tension [1] [mN/m] | solubility [2] [mg/mL] | optimum salinity parameter [3] [g/L] | optimum solubility parameter [3] [%]
CCCCCCCCCCCCCCCCCC[N+](C)(C)CCCN(CCCCS(=O)(=O)[O-])C(C)=O [Example 7, 5-acetyl-5-aza-8 (N,N-dimethylstearylammonium)octane sulfonate] | 0.0028 | 39 | 4 | – | –
CCCCCCCCCCCCCCCCCC[N+](C)(C)CCN(CCCS(=O)(=O)[O-])C(C)=O [drawing 25] | – | – | – | 30 | 55
CCCCCCCCCCCC[N+](C)(C)CCN(CCCS(=O)(=O)[O-])C(C)=O [Example 2, 4-acetyl-4-aza-6(N,N-dimethyl-laurylammonium)hexane sulfonate] | 0.04 | 54 | 300 | – | –
CCCCCCCCCCCCCCCCCC[N+](C)(C)CCN(CCCS(=O)(=O)[O-])C(C)=O [Example 3, 4-acetyl-4-aza-6 (N,N-dimethyl stearylammonium) hexane sulfonate] | 0.01 | 35 | 80 | – | –
CCCCCCCCCCCC[N+](C)(C)CCCN(CCCS(=O)(=O)[O-])C(C)=O [Example 5, 4-acetyl-4-aza-7 (N,N-dimethyl laurylammonium)heptane sulfonate] | 0.15 | 49 | 300 | – | –

Source: patent US4704229A, “Surface-active compounds of the sulfobetaines family, their manufacture and use, particularly for enhanced oil recovery” (Institut Francais du Petrole, priority 1984, dated 1987)
